PubChem BioAssay (NCI)
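How tested: cells in 96-well plates exposed to compound for 48 hours at five concentrations. GI50 marks 50% less growth. At the TGI there is no net growth.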

Columns and labels:
Assay in all cases: NCI tumour cell line growth inhibition, 48 h
[1] = tested on: SF-295 CNS
[2] = tested on: NCI-H226 lung
[3] = tested on: TK-10 renal
[4] = tested on: UACC-62 melanoma
[5] = tested on: BT-549 breast
[6] = tested on: K-562 leukemia
[7] = tested on: HCT-116 colon
[8] = tested on: HOP-62 NSCLC
[9] = tested on: DU-145 prostate
[10] = tested on: IGROV1 ovarian
[11] = tested on: SF-268 CNS
[12] = tested on: HS 578T breast
[13] = tested on: SN12C renal
[14] = tested on: SW-620 colon
[15] = tested on: HCC-2998 colon
[16] = tested on: HOP-92 NSCLC
[17] = tested on: A498 renal
[18] = tested on: UACC-257 melanoma
[19] = tested on: SNB-19 CNS
[20] = tested on: SR leukemia
[21] = tested on: OVCAR-4 ovarian
[22] = tested on: COLO 205 colon
[23] = tested on: NCI-H460 lung
[24] = tested on: NCI/ADR-RES ovarian
[25] = tested on: OVCAR-5 ovarian
[26] = tested on: RPMI-8226 leukemia
[27] = tested on: NCI-H23 lung
[28] = tested on: MOLT-4 leukemia
[29] = tested on: LOX IMVI melanoma
[30] = tested on: CAKI-1 renal
[31] = tested on: SK-MEL-2 melanoma
[32] = tested on: MCF7 breast
[33] = tested on: T-47D breast
[34] = tested on: UO-31 renal
[35] = tested on: OVCAR-8 ovarian
[36] = tested on: RXF 393 renal
[37] = tested on: SF-539 CNS
[38] = tested on: SK-MEL-28 melanoma
[39] = tested on: HT29 colon
[40] = tested on: PC-3 prostate
[41] = tested on: MDA-MB-435
[42] = tested on: SK-MEL-5 melanoma
[43] = tested on: KM12 colon
[44] = tested on: M14 melanoma
[45] = tested on: 786-0 renal
[46] = tested on: U251 CNS
[47] = tested on: HCT-15 colon
[48] = tested on: EKVX NSCLC
[49] = tested on: ACHN renal
[50] = tested on: CCRF-CEM leukemia
[51] = tested on: NCI-H522 lung
[52] = tested on: MDA-MB-231 breast
[53] = tested on: A549 NSCLC
[54] = tested on: OVCAR-3 ovarian
[55] = tested on: SNB-75 CNS
[56] = tested on: SK-OV-3 ovarian
[57] = tested on: HL-60(TB) leukemia
[58] = tested on: MALME-3M melanoma

With `C/C1=C\CC[C@@](C)(O)[C@H]2C[C@H](CC/C(C)=C/CC1)C1(CC1)C(=O)O2` the GI50 [1] was 19.3 µM, the TGI [1] was 46.7 µM and the GI50 [2] was 21.2 µM. The TGI [2] was 46.5 µM, the GI50 [3] was 32.9 µM and the TGI [3] was > 100 µM. The GI50 [4] was 23.9 µM, the TGI [4] was 99.8 µM and the GI50 [5] was 23.7 µM. It also gave a TGI [5] of 55.7 µM, a GI50 [6] of 13.2 µM and a TGI [6] of 29 µM. For the same compound, the GI50 [7] was 18.1 µM, the TGI [7] was 32.2 µM and the GI50 [8] was 18.5 µM. For the same compound, the TGI [8] was 35.4 µM, the GI50 [9] was 16.6 µM and the TGI [9] was 31.2 µM. The GI50 [10] was 18.9 µM, the TGI [10] was 39.7 µM and the GI50 [11] was 19.3 µM. For the same compound, the TGI [11] was 41.2 µM, the GI50 [12] was 29.9 µM and the TGI [12] was 96.5 µM. The GI50 [13] was 20.3 µM, the TGI [13] was 43.2 µM and the GI50 [14] was 21.8 µM. For the same compound, the TGI [14] was 46.2 µM, the GI50 [15] was 18 µM and the TGI [15] was 35.2 µM. The GI50 [16] was 16 µM, the TGI [16] was 33.3 µM and the GI50 [17] was 20.1 µM. For the same compound, the TGI [17] was 66.2 µM, the GI50 [18] was 19.4 µM and the TGI [18] was 67.2 µM. The GI50 [19] was 85.6 µM, the TGI [19] was > 100 µM and the GI50 [20] was 14.1 µM. For the same compound, the TGI [20] was 32.6 µM, the GI50 [21] was 63.4 µM and the TGI [21] was > 100 µM. For the same compound, the GI50 [22] was 32.5 µM, the TGI [22] was > 100 µM and the GI50 [23] was 19.6 µM. The TGI [23] was 45.7 µM, the GI50 [24] was 23.6 µM and the TGI [24] was 57.4 µM. It also gave a GI50 [25] of 31.4 µM, a TGI [25] of 80 µM and a GI50 [26] of 14.2 µM. The TGI [26] was 35.8 µM, the GI50 [27] was 38 µM and the TGI [27] was > 100 µM. For the same compound, the GI50 [28] was 16.6 µM, the TGI [28] was 55.9 µM and the GI50 [29] was 13.6 µM. The TGI [29] was 28.6 µM, the GI50 [30] was 20.7 µM and the TGI [30] was 43.3 µM. The GI50 [31] was 39.1 µM, the TGI [31] was > 100 µM and the GI50 [32] was 21 µM. The TGI [32] was 57.4 µM, the GI50 [33] was 36.5 µM and the TGI [33] was > 100 µM. It also gave a GI50 [34] of 18.2 µM, a TGI [34] of 33.8 µM and a GI50 [35] of 20 µM. For the same compound, the TGI [35] was 40.8 µM, the GI50 [36] was 18.4 µM and the TGI [36] was 42.8 µM. The GI50 [37] was 17.1 µM, the TGI [37] was 33.5 µM and the GI50 [38] was 45.3 µM. The TGI [38] was > 100 µM, the GI50 [39] was 36.6 µM and the TGI [39] was > 100 µM. The GI50 [40] was 14.8 µM, the TGI [40] was 32.4 µM and the GI50 [41] was 25.4 µM. For the same compound, the TGI [41] was 79.1 µM, the GI50 [42] was 18.6 µM and the TGI [42] was 35.1 µM. For the same compound, the GI50 [43] was 37.2 µM, the TGI [43] was > 100 µM and the GI50 [44] was 31.4 µM. The TGI [44] was > 100 µM, the GI50 [45] was 16.4 µM and the TGI [45] was 30.6 µM. For the same compound, the GI50 [46] was 17.5 µM, the TGI [46] was 37.1 µM and the GI50 [47] was 17.6 µM. For the same compound, the TGI [47] was 36.8 µM, the GI50 [48] was 37 µM and the TGI [48] was > 100 µM. For the same compound, the GI50 [49] was 16.8 µM, the TGI [49] was 31.3 µM and the GI50 [50] was 13.5 µM. It also gave a TGI [50] of 39 µM, a GI50 [51] of 23.1 µM and a TGI [51] of 62.9 µM. For the same compound, the GI50 [52] was 17.5 µM, the TGI [52] was 35.1 µM and the GI50 [53] was 17.4 µM. It also gave a TGI [53] of 32.3 µM, a GI50 [54] of 25.2 µM and a TGI [54] of 84.7 µM. For the same compound, the GI50 [55] was 44.2 µM, the TGI [55] was > 100 µM and the GI50 [56] was > 100 µM. For the same compound, the TGI [56] was > 100 µM.

Work on `O=C1CC(c2ccccc2)Cc2nc3ccc(Cl)cc3cc21` (stereo unspecified) yielded a GI50 [1] of 0.339 µM, a TGI [1] of 17.3 µM and a GI50 [2] of 0.795 µM. For the same compound, the TGI [2] was > 23.6 µM, the GI50 [3] was 22.3 µM and the TGI [3] was > 100 µM. The GI50 [4] was 0.15 µM, the TGI [4] was 35.5 µM and the GI50 [5] was 0.503 µM. For the same compound, the TGI [5] was 11.3 µM, the GI50 [6] was 0.0859 µM and the TGI [6] was > 100 µM. The GI50 [7] was 0.0472 µM, the TGI [7] was > 49.5 µM and the GI50 [8] was 0.459 µM. The TGI [8] was > 100 µM, the GI50 [9] was 0.217 µM and the TGI [9] was > 100 µM. For the same compound, the GI50 [10] was 0.397 µM, the TGI [10] was > 100 µM and the GI50 [11] was 6.04 µM. The TGI [11] was > 100 µM, the GI50 [12] was 0.351 µM and the TGI [12] was > 100 µM. For the same compound, the GI50 [13] was 0.518 µM, the TGI [13] was > 84.9 µM and the GI50 [14] was 0.323 µM. The TGI [14] was > 100 µM, the GI50 [15] was 2.39 µM and the TGI [15] was 20.2 µM. It also gave a GI50 [16] of 1.51 µM, a TGI [16] of 42.5 µM and a GI50 [17] of 0.0503 µM. The TGI [17] was 0.401 µM, the GI50 [18] was 15.6 µM and the TGI [18] was > 85.4 µM. The GI50 [19] was 0.462 µM, the TGI [19] was > 100 µM and the GI50 [20] was 0.0553 µM. The TGI [20] was 35.2 µM, the GI50 [21] was 7.26 µM and the TGI [21] was > 100 µM. The GI50 [22] was 0.344 µM, the TGI [22] was 3 µM and the GI50 [57] was 0.143 µM. For the same compound, the TGI [57] was 0.566 µM, the GI50 [23] was 0.343 µM and the TGI [23] was > 34.5 µM. For the same compound, the GI50 [24] was 0.0586 µM, the TGI [24] was 5.21 µM and the GI50 [25] was 0.791 µM. For the same compound, the TGI [25] was > 100 µM, the GI50 [26] was 2.78 µM and the TGI [26] was 37.8 µM. For the same compound, the GI50 [27] was 0.562 µM, the TGI [27] was > 100 µM and the GI50 [28] was 0.0644 µM. For the same compound, the TGI [28] was > 100 µM, the GI50 [29] was 0.626 µM and the TGI [29] was 26.2 µM. The GI50 [30] was 0.112 µM, the TGI [30] was > 100 µM and the GI50 [31] was 0.207 µM. For the same compound, the TGI [31] was > 100 µM, the GI50 [32] was 2.42 µM and the TGI [32] was > 100 µM. The GI50 [33] was 6.17 µM, the TGI [33] was > 89 µM and the GI50 [34] was 0.263 µM. For the same compound, the TGI [34] was > 93 µM, the GI50 [35] was 0.386 µM and the TGI [35] was > 100 µM. It also gave a GI50 [37] of 0.211 µM, a TGI [37] of 0.642 µM and a GI50 [38] of 1.05 µM. The TGI [38] was > 100 µM, the GI50 [39] was 0.246 µM and the TGI [39] was > 100 µM. For the same compound, the GI50 [40] was 0.293 µM, the TGI [40] was > 100 µM and the GI50 [41] was 0.0235 µM. It also gave a TGI [41] of 0.0649 µM, a GI50 [42] of 0.309 µM and a TGI [42] of 2.37 µM. The GI50 [43] was 0.342 µM, the TGI [43] was 22.7 µM and the GI50 [58] was 0.0453 µM. It also gave a TGI [58] of 52.9 µM, a GI50 [44] of 0.0356 µM and a TGI [44] of 23.8 µM. For the same compound, the GI50 [45] was 0.815 µM, the TGI [45] was > 74.7 µM and the GI50 [46] was 0.644 µM. The TGI [46] was > 62.2 µM, the GI50 [47] was 0.511 µM and the TGI [47] was 66.6 µM. For the same compound, the GI50 [48] was 0.732 µM, the TGI [48] was > 100 µM and the GI50 [49] was 0.261 µM. For the same compound, the TGI [49] was > 100 µM, the GI50 [50] was 0.0395 µM and the TGI [50] was > 100 µM. For the same compound, the GI50 [51] was 0.194 µM, the TGI [51] was 19 µM and the GI50 [52] was 0.538 µM. The TGI [52] was > 100 µM, the GI50 [53] was 0.451 µM and the TGI [53] was > 100 µM. It also gave a GI50 [54] of 0.313 µM, a TGI [54] of 1.16 µM and a GI50 [55] of 0.126 µM. The TGI [55] was 70.3 µM, the GI50 [56] was 0.753 µM and the TGI [56] was > 100 µM.
